The source made the active and inactive calls. The calls are words filed in the database; no cut-off is given here.
Assays:
Escherichia coli [1] = assay: Photodynamic inactivation of Escherichia coli ATCC 25922 assessed as reduction in cell survival at 5 uM preincubated for 10 mins followed by visible light irradiation for 60 mins; format: functional
Escherichia coli [2] = assay: Photodynamic inactivation of Escherichia coli ATCC 25922 assessed as reduction in intracellular double stranded DNA concentration at 5 uM preincubated for 10 mins followed by visible light irradiation for 180 mins by fluorimetric analysis relative to control; format: functional; set-up: scale not given: the % may be the effect or the level left
Staphylococcus warneri [3] = assay: Photodynamic inactivation of Staphylococcus warneri assessed as reduction in cell survival at 0.5 uM preincubated for 10 mins followed by visible light irradiation for 40 mins; format: functional
Staphylococcus warneri [4] = assay: Photodynamic inactivation of Staphylococcus warneri assessed as reduction in intracellular double stranded DNA concentration at 0.5 uM preincubated for 10 mins followed by visible light irradiation for 15 mins by fluorimetric analysis relative to control; format: functional; set-up: scale not given: the % may be the effect or the level left
Staphylococcus warneri [5] = assay: Photodynamic inactivation of Staphylococcus warneri assessed as reduction in cell survival at 0.5 uM preincubated for 10 mins followed by visible light irradiation for 5 mins; format: functional
Escherichia coli [6] = assay: Photodynamic inactivation of Escherichia coli ATCC 25922 assessed as reduction in intracellular double stranded DNA concentration at 5 uM preincubated for 10 mins followed by visible light irradiation for 90 mins by fluorimetric analysis relative to control; format: functional; set-up: scale not given: the % may be the effect or the level left
Escherichia coli [7] = assay: Photodynamic inactivation of Escherichia coli ATCC 25922 assessed as reduction in cell survival at 5 uM preincubated for 10 mins followed by visible light irradiation at 8 J cm'-2 light dose; format: functional
Staphylococcus warneri [8] = assay: Photodynamic inactivation of Staphylococcus warneri assessed as reduction in intracellular double stranded DNA concentration at 0.5 uM preincubated for 10 mins followed by visible light irradiation for 20 mins by fluorimetric analysis relative to control; format: functional; set-up: scale not given: the % may be the effect or the level left
Staphylococcus warneri [9] = assay: Photodynamic inactivation of Staphylococcus warneri assessed as reduction in cell survival at 0.5 uM preincubated for 10 mins followed by visible light irradiation for 15 mins; format: functional
Escherichia coli [10] = assay: Photodynamic inactivation of Escherichia coli ATCC 25922 assessed as reduction in intracellular double stranded DNA concentration at 5 uM preincubated for 10 mins followed by visible light irradiation for 30 mins by fluorimetric analysis relative to control; format: functional; set-up: scale not given: the % may be the effect or the level left
Staphylococcus warneri [11] = assay: Drug uptake in Staphylococcus warneri at 0.5 uM after 10 mins by spectrofluorimetric analysis; format: ADME, organism-based; details: in vivo
Escherichia coli [12] = assay: Drug uptake in Escherichia coli ATCC 25922 at 5 uM after 10 mins by spectrofluorimetric analysis; format: ADME, organism-based; details: in vivo
Staphylococcus warneri [13] = assay: Photodynamic inactivation of Staphylococcus warneri assessed as reduction in intracellular double stranded DNA concentration at 0.5 uM preincubated for 10 mins followed by visible light irradiation for 40 mins by fluorimetric analysis relative to control; format: functional; set-up: scale not given: the % may be the effect or the level left
Escherichia coli [14] = assay: Drug uptake in Escherichia coli ATCC 25922 at 5 uM incubated for 10 mins followed by compound washout by spectrofluorimetric analysis relative to control; format: ADME, organism-based; details: in vivo
Escherichia coli [15] = assay: Photodynamic inactivation of Escherichia coli ATCC 25922 assessed as reduction in cell survival at 5 uM preincubated for 10 mins followed by visible light irradiation for 270 mins; format: functional
Escherichia coli [16] = assay: Photodynamic inactivation of Escherichia coli ATCC 25922 assessed as reduction in cell survival at 5 uM preincubated for 10 mins followed by visible light irradiation for 180 mins; format: functional
Staphylococcus warneri [17] = assay: Photodynamic inactivation of Staphylococcus warneri assessed as reduction in intracellular double stranded DNA concentration at 0.5 uM preincubated for 10 mins followed by visible light irradiation for 5 mins by fluorimetric analysis relative to control; format: functional; set-up: scale not given: the % may be the effect or the level left
Escherichia coli [18] = assay: Photodynamic inactivation of Escherichia coli ATCC 25922 assessed as reduction in intracellular double stranded DNA concentration at 5 uM preincubated for 10 mins followed by visible light irradiation for 270 mins by fluorimetric analysis relative to control; format: functional; set-up: scale not given: the % may be the effect or the level left
Staphylococcus warneri [19] = assay: Photodynamic inactivation of Staphylococcus warneri assessed as reduction in cell survival at 0.5 uM preincubated for 10 mins followed by visible light irradiation for 20 mins; format: functional
Staphylococcus warneri [20] = assay: Photodynamic inactivation of Staphylococcus warneri assessed as reduction in cell survival at 0.5 uM preincubated for 10 mins followed by visible light irradiation for 30 mins; format: functional
Staphylococcus warneri [21] = assay: Photodynamic inactivation of Staphylococcus warneri assessed as reduction in intracellular double stranded DNA concentration at 0.5 uM preincubated for 10 mins followed by visible light irradiation for 30 mins by fluorimetric analysis relative to control; format: functional; set-up: scale not given: the % may be the effect or the level left
Staphylococcus warneri [22] = assay: Drug uptake in Staphylococcus warneri at 0.5 uM incubated for 10 mins followed by compound washout by spectrofluorimetric analysis relative to control; format: ADME, organism-based; details: in vivo
Staphylococcus warneri [23] = assay: Photodynamic inactivation of Staphylococcus warneri assessed as reduction in cell survival at 0.5 uM preincubated for 10 mins followed by visible light irradiation for 10 mins; format: functional
Escherichia coli [24] = assay: Photodynamic inactivation of Escherichia coli ATCC 25922 assessed as reduction in cell survival at 5 uM preincubated for 10 mins followed by visible light irradiation for 15 mins; format: functional
Escherichia coli [25] = assay: Photodynamic inactivation of Escherichia coli ATCC 25922 assessed as reduction in cell survival at 5 uM preincubated for 10 mins followed by visible light irradiation for 90 mins; format: functional
Escherichia coli [26] = assay: Photodynamic inactivation of Escherichia coli ATCC 25922 assessed as reduction in cell survival at 5 uM preincubated for 10 mins followed by visible light irradiation for 30 mins; format: functional
Escherichia coli [27] = assay: Photodynamic inactivation of Escherichia coli ATCC 25922 assessed as reduction in intracellular double stranded DNA concentration at 5 uM preincubated for 10 mins followed by visible light irradiation for 60 mins by fluorimetric analysis relative to control; format: functional; set-up: scale not given: the % may be the effect or the level left
Escherichia coli [28] = assay: Photodynamic inactivation of Escherichia coli ATCC 25922 assessed as reduction in intracellular double stranded DNA concentration at 5 uM preincubated for 10 mins followed by visible light irradiation for 15 mins by fluorimetric analysis relative to control; format: functional; set-up: scale not given: the % may be the effect or the level left
Staphylococcus warneri [29] = assay: Photodynamic inactivation of Staphylococcus warneri assessed as reduction in intracellular double stranded DNA concentration at 0.5 uM preincubated for 10 mins followed by visible light irradiation for 10 mins by fluorimetric analysis relative to control; format: functional; set-up: scale not given: the % may be the effect or the level left
Staphylococcus warneri [30] = assay: Photodynamic inactivation of Staphylococcus warneri assessed as reduction in cell survival at 0.5 uM preincubated for 10 mins followed by visible light irradiation at 5 J cm'-2 light dose; format: functional
Escherichia coli [31] = assay: Photodynamic inactivation of Escherichia coli ATCC 25922 assessed as reduction in intracellular double stranded DNA concentration at 5 uM preincubated for 10 mins followed by visible light irradiation by fluorimetric analysis; format: functional, organism-based; details: TDE = time-dependent effect
Escherichia coli [32] = assay: Photodynamic inactivation of Escherichia coli ATCC 25922 assessed as reduction in genomic DNA level at 5 uM preincubated for 10 mins followed by visible light irradiation for 15 mins by agarose gel electrophoresis; format: functional, organism-based
Staphylococcus warneri [33] = assay: Photodynamic inactivation of Staphylococcus warneri assessed as reduction in DNA level at 0.5 uM preincubated for 10 mins followed by visible light irradiation for 40 mins by agarose gel electrophoresis; format: functional, organism-based
Escherichia coli [34] = assay: Photodynamic inactivation of Escherichia coli ATCC 25922 assessed as reduction in 16S rRNA level at 5 uM preincubated for 10 mins followed by visible light irradiation for 30 mins by agarose gel electrophoresis; format: functional, organism-based
Escherichia coli [35] = assay: Photodynamic inactivation of Escherichia coli ATCC 25922 assessed as reduction in 23S rRNA level at 5 uM preincubated for 10 mins followed by visible light irradiation for 30 mins by agarose gel electrophoresis; format: functional, organism-based
Escherichia coli [36] = assay: Photodynamic inactivation of Escherichia coli ATCC 25922 assessed as reduction in nucleic acid level at 5 uM preincubated for 10 mins followed by visible light irradiation for 60 mins by agarose gel electrophoresis; format: functional, organism-based
Staphylococcus warneri [37] = assay: Photodynamic inactivation of Staphylococcus warneri assessed as reduction in DNA level at 0.5 uM preincubated for 10 mins followed by visible light irradiation for 5 to 30 mins by agarose gel electrophoresis; format: functional, organism-based
Escherichia coli [38] = assay: Photodynamic inactivation of Escherichia coli ATCC 25922 assessed as reduction in rRNA level at 5 uM preincubated for 10 mins followed by visible light irradiation for 15 mins by agarose gel electrophoresis; format: functional, organism-based
Staphylococcus warneri [39] = assay: Photodynamic inactivation of Staphylococcus warneri assessed as reduction in nucleic acid level at 0.5 uM preincubated for 10 mins followed by visible light irradiation for 20 to 40 mins by agarose gel electrophoresis; format: functional, organism-based
Staphylococcus warneri [40] = assay: Photodynamic inactivation of Staphylococcus warneri assessed as reduction in genomic DNA level at 0.5 uM preincubated for 10 mins followed by visible light irradiation for 5 to 15 mins by agarose gel electrophoresis; format: functional, organism-based
Escherichia coli [41] = assay: Photodynamic inactivation of Escherichia coli ATCC 25922 assessed as reduction in degraded DNA and mRNA level at 5 uM preincubated for 10 mins followed by visible light irradiation for 30 mins by agarose gel electrophoresis; format: functional, organism-based
Staphylococcus warneri [42] = assay: Photodynamic inactivation of Staphylococcus warneri assessed as reduction in intracellular double stranded DNA concentration at 0.5 uM preincubated for 10 mins followed by visible light irradiation by fluorimetric analysis; format: functional, organism-based; details: TDE = time-dependent effect

| Compound | log10CFU/ml (Escherichia coli [1]) | Activity (Escherichia coli [2]) [%] | log10CFU/ml (Staphylococcus warneri [3]) | Activity (Staphylococcus warneri [4]) [%] | log10CFU/ml (Staphylococcus warneri [5]) | Activity (Escherichia coli [6]) [%] | Activity (Escherichia coli [7]) [%] | Activity (Staphylococcus warneri [8]) [%] | log10CFU/ml (Staphylococcus warneri [9]) | Activity (Escherichia coli [10]) [%] | Drug uptake (Staphylococcus warneri [11]) | Drug uptake (Escherichia coli [12]) | Activity (Staphylococcus warneri [13]) [%] | Drug uptake (Escherichia coli [14]) [%] | log10CFU/ml (Escherichia coli [15]) | log10CFU/ml (Escherichia coli [16]) | Activity (Staphylococcus warneri [17]) [%] | Activity (Escherichia coli [18]) [%] | log10CFU/ml (Staphylococcus warneri [19]) | log10CFU/ml (Staphylococcus warneri [20]) | also measured |
| --- | --- | --- | --- | --- | --- | --- | --- | --- | --- | --- | --- | --- | --- | --- | --- | --- | --- | --- | --- | --- | --- |
| C[n+]1ccc(-c2c3nc(c(-c4cc[n+](C)cc4)c4ccc([nH]4)c(-c4cc[n+](C)cc4)c4nc(c(-c5cc[n+](C)cc5)c5ccc2[nH]5)C=C4)C=C3)cc1.[I-].[I-].[I-].[I-] | 4.4 | 99.8 | 5.6 | 38.1 | 0.4 | 99.8 | 99.9 | 38.3 | 2.8 | 42.8 | Active | Active | 58.2 | 35 | 6.2 | 6.1 | 19.6 | 99.8 | 3.3 | 4.7 | Activity (Staphylococcus warneri [21]): 45.3%; Drug uptake (Staphylococcus warneri [22]): 47%; log10CFU/ml (Staphylococcus warneri [23]): 1.8; log10CFU/ml (Escherichia coli [24]): 0.2; log10CFU/ml (Escherichia coli [25]): 5.7; log10CFU/ml (Escherichia coli [26]): 2.9; Activity (Escherichia coli [27]): 81.2%; Activity (Escherichia coli [28]): 14.3%; Activity (Staphylococcus warneri [29]): 37.9%; Activity (Staphylococcus warneri [30]): 99.9% |
| C[n+]1ccc(-c2c3nc(c(-c4cc[n+](C)cc4)c4ccc([nH]4)c(-c4cc[n+](C)cc4)c4ccc([nH]4)c(-c4cc[n+](C)cc4)c4nc2C=C4)C=C3)cc1 |  |  |  |  |  |  |  |  |  |  |  |  |  |  |  |  |  |  |  |  | Activity (Escherichia coli [31]): tde; Activity (Escherichia coli [32]): inactive; Activity (Staphylococcus warneri [33]): inactive; Activity (Escherichia coli [34]): Active; Activity (Escherichia coli [35]): Active; Activity (Escherichia coli [36]): Active; Activity (Staphylococcus warneri [37]): Active; Activity (Escherichia coli [38]): inactive |
| C[n+]1ccc(-c2c3nc(c(-c4cc[n+](C)cc4)c4ccc([nH]4)c(-c4c(F)c(F)c(F)c(F)c4F)c4nc(c(-c5cc[n+](C)cc5)c5ccc2[nH]5)C=C4)C=C3)cc1.[I-].[I-].[I-] | 5.4 | 99.1 | 7.5 | 78 | 4.8 | 98.3 | 99.9 | 82.8 | 5.6 | 55.1 | Active | Active | 92.2 | 47 | 7.7 | 7.2 | 66.2 | 99.6 | 6.9 | 7.2 | Activity (Staphylococcus warneri [39]): Active; Activity (Staphylococcus warneri [40]): Active; Activity (Staphylococcus warneri [21]): 91.9%; Drug uptake (Staphylococcus warneri [22]): 74%; Activity (Escherichia coli [31]): tde; Activity (Escherichia coli [41]): Active; Activity (Escherichia coli [32]): Active; log10CFU/ml (Staphylococcus warneri [23]): 5.3; log10CFU/ml (Escherichia coli [24]): 3.1; log10CFU/ml (Escherichia coli [25]): 5.8; log10CFU/ml (Escherichia coli [26]): 5.2; Activity (Escherichia coli [27]): 98.4%; Activity (Escherichia coli [36]): Active; Activity (Escherichia coli [28]): 23.1%; Activity (Staphylococcus warneri [29]): 69.9%; Activity (Staphylococcus warneri [42]): tde; Activity (Staphylococcus warneri [30]): 99.9%; Activity (Escherichia coli [38]): Active |
